{
  "source": "patent US20080213381A1",
  "about": "“Oral Drug Delivery System” (PHARMACEUTICAL INDUSTRIES LIMITED, priority 2005, published 2008)",
  "origin": "cited, not measured here",
  "key": {"[1]": {"conditions": "oral, conventional immediate release dosage form of venlafaxine hydrochloride"}},
  "data": [
    {"smiles": "COc1ccc(C(CN(C)C)C2(O)CCCCC2)cc1", "note": "(stereo not drawn) [venlafaxine]", "values": [
      {"measurement": "time after oral administration at which plasma venlafaxine level is sub-therapeutic", "setting": "conventional immediate release dosage form", "value": "around 12 hours"},
      {"measurement": "time at which peak plasma concentration of the active metabolite is achieved", "setting": "[1]", "value": 4, "unit": "h"},
      {"measurement": "time at which peak plasma concentration of venlafaxine is achieved", "setting": "[1]", "value": 2, "unit": "h"}
    ]}
  ]
}
